Reference: US6194601A, “5,6-dihydronaphthalenyl derivatives having retinoid-like activity” (Bristol-Myers Squibb Company, priority 1999, dated 2001)
pIC50, pKd: −log10 of the molar value. Entries after “also recorded” stand apart in the source; their conditions may differ. Like-named read-outs stand apart in the source and are kept apart here.

What was measured:
rhino mice [1] = experiment: rhino mouse assay, comedolytic activity (utriculi size reduction); format: in vivo; settings: for ED30: Table 4, topical activity; for ED30 (30% reduction in utriculi size): rhino mouse, FIG. 1 study
Experimental: (§1) The comedolytic activity of the compounds of the instant application has been evaluated by the rhino mouse assay model. The compounds were administered daily to rhino mice topically in ethanol at various concentrations for 5 days. Signs of skin irritation are evaluated at day 5 by visual inspection of the mouse skin and graded for edema, erythema (redness) and scaling (flakiness) with scales of 1-5 and 1-4, respectively. Skin samples were taken at day 7 and processed for image analysis to measure the size of utriculi.

rabbit skin = rabbit skin irritation model; format: in vivo; settings: for Erythema score: Table 3, topical daily 14 days, ethanol; for IS3, irritation relative to TRA: species not given
[2] = tested on: SK-BR-3 Breast CA (E2-indep.); experiment: inhibition of cell proliferation (3H-thymidine uptake), SK-BR-3; format: cell-based; settings: Homo sapiens
Experimental: (§2) The compounds of the present invention have been also tested as inhibitors of cell proliferation (^3 H-thymidine uptake). Cells were plated on 96-well plates at a pre-determined density so that 80% cellular confluency is reached by day 7. 24 hr after plating, culture media was changed and cells were treated with the appropriate drug or vehicle (day 0). Culture media was changed on days 3 and 6. Cellular proliferation was measured on Day 7 by quantitating the amount of tritiated thymidine ([3H]-TdR) incorporated into the celular DNA (Odham, K. G. (1977) in: Radiotracer Techniques and Applications, edited by E. A. Evans and M. Murawatsu; M. Dekker Inc. New York; 2, 823).

[3] = tested on: H3396 Breast CA (E2-dep.); experiment: inhibition of cell proliferation (3H-thymidine uptake), H3396; format: cell-based; settings: Homo sapiens
Experimental: as §2

MCF7 Breast CA (E2-dep.) = experiment: inhibition of cell proliferation (3H-thymidine uptake), MCF7; format: cell-based; settings: Homo sapiens
Experimental: as §2

Calu-3 Lung CA = experiment: inhibition of cell proliferation (3H-thymidine uptake), Calu-3; format: cell-based; settings: Homo sapiens
Experimental: as §2

[4] = tested on: Detroit 562 Pharyngeal CA; experiment: inhibition of cell proliferation (3H-thymidine uptake), Detroit 562; format: cell-based; settings: Homo sapiens
Experimental: as §2

SCC 25 tongue SCC = experiment: inhibition of cell proliferation (3H-thymidine uptake), SCC 25; format: cell-based; settings: Homo sapiens
Experimental: as §2

rhino mice [5] = tested on: rhino mice; parameters: species or system rhino mouse; settings: mouse, in vivo
Experimental: as §1

[6] = rabbit skin irritation model; format: in vivo; settings: rabbit, in vivo, topical or ocular; from IS3 and ED30, Table 4; read-out: Therapeutic index
RARα = target: T1, RARα (Homo sapiens, UniProt P10276); experiment: apparent Kd for binding to RARα; settings: read-out: Kd (α)
T1 sequence (P10276 1-462): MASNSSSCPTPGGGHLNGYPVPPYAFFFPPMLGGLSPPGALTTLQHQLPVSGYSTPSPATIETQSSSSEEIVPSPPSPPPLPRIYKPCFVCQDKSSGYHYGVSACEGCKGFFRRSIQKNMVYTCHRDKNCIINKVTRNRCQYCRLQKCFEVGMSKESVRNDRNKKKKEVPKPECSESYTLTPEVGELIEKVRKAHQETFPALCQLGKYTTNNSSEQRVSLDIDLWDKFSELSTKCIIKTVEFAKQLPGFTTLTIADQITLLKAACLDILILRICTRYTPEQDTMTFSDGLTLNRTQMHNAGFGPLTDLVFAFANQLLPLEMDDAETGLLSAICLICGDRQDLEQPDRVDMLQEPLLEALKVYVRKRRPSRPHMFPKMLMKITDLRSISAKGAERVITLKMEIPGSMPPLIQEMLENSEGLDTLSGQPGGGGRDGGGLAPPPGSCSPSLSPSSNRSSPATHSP

RARβ = target: T2, RARβ (Homo sapiens, UniProt P10826); experiment: apparent Kd for binding to RARβ; settings: read-out: Kd (β)
T2 sequence (P10826 1-455): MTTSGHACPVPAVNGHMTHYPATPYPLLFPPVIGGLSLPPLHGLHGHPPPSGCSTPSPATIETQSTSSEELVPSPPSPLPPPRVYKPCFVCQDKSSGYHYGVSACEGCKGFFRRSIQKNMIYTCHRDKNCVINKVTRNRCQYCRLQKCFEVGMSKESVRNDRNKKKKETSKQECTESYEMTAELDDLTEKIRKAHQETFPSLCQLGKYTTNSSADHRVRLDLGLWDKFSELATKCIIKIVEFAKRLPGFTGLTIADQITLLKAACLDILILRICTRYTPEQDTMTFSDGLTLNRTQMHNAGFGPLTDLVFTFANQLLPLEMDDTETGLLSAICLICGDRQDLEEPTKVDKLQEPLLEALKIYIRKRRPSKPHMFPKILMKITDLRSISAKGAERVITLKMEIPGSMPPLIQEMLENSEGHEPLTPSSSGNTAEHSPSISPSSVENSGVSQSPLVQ

RARγ = target: T3, RARγ (Homo sapiens, UniProt P13631); experiment: apparent Kd for binding to RARγ; settings: read-out: Kd (γ)
T3 sequence (P13631 1-454): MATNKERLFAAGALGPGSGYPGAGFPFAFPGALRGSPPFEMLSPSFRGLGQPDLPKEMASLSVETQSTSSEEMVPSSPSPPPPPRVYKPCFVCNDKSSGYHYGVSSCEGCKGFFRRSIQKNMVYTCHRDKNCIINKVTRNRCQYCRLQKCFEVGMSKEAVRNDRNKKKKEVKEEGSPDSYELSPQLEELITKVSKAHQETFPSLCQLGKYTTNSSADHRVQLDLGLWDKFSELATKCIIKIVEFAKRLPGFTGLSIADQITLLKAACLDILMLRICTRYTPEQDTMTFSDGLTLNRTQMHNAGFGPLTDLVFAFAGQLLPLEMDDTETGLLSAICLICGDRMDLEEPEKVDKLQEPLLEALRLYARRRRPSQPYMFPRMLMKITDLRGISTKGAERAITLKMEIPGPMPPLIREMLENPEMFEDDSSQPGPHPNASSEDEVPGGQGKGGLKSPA

[7] = tested on: H3396 (ER+) breast carcinoma subcutaneous xenografts; experiment: tumor growth inhibition in athymic mice bearing H3396 xenografts; format: in vivo; settings: intraperitoneal, every two days for 10 days
Experimental: This potent anti-proliferative activity is also translated in vivo on athymic mice bearing H3396 (ER+) breast carcinoma subcutaneous xenografts (P. A. Trail, et al., Cancer Research, 52, p. 5693-5700 (1992). Athymic mice were implanted with 0.72 mg (60-day release) estradiol pellets (Innovative Research of America, Toledo, Ohio) one day prior to the implantation of H3396 tumors. H3396 tumors were measured in two perpendicular directions at weekly or biweekly intervals, using calipers. Tumor volume was calculated according to the equation: V=I×w^2 /2, where V=volume (mm3), I=measurement of longest axis (mm), and w=measurement of axis perpendicular to 1. In general, there were 8-10 mice in each control or treatment group. Data are presented as median tumor size for control or treated groups. Antitumor activity is expressed in terms of median TVDD values, where TVDD=T-C/TVDT; T-C is defined as the median time (days) for treated tumors to reach 500 mm3 in size minus the median time for control tumors to reach 500 mm3 in size and TVDT is the time (days) for control tumors to double in volume (250-500 mm3).
In this experiment, the tumor growth delay was equivalent to 1.2 log cell kill at 30 mg/kg.

[8] = topical daily in ethanol, 5 days
[9] = species and concentration not given
[10] = 7 days, 3H-thymidine, read-out: IC50

For `CC1=C(/C=C/C(C)=C/C=C/C(C)=C/C(=O)O)C(C)(C)CCC1` [TRA, All-trans retinoic acid], the “Utriculi reduction at 0.1 mM” value (rhino mice [1]; [8]) was 64%, the “Utriculi reduction at 1 mM” value (rhino mice [1]; [8]) was 100% and the ED30 (rhino mice [1]) was 15000 nM. The “ED30 (30% reduction in utriculi size)” value (rhino mice [1]) was 28000 nM, the Erythema score (rabbit skin; concentration not given) was 4.8 and the “IS3 (concentration necessary to achieve an irritation score of 3)” value (rabbit skin; Table 4) was 0.3 mM. For the same compound, the “irritation to rabbit skin” value (rabbit skin; concentrations above 0.1 mM, 14 days, FIG. 2) was “caused significant irritation to rabbit skin”, the pIC50 [2] was 9.00 and the pIC50 [3] was 6.52. For the same compound, the pIC50 (MCF7 Breast CA (E2-dep.)) was 6.19, the pIC50 (Calu-3 Lung CA) was 7.00 and the pIC50 [4] was less than 5.00. The pIC50 (SCC 25 tongue SCC) was 7.30.

In the case of `CC(C)(C)/C=C\C1=CCC(C)(C)c2ccc(/C=C/c3ccc(C(=O)O)cc3)cc21` [Compound C, 4-[(E)-(5,6-Dihydro-5,5-dimethyl-8-((Z)-3,3-dimethyl-1-buten-1-yl)-2-naphthalenyl)ethenyl]benzoic acid], the “Utriculi reduction (at 0.01 mM, printed in the 0.1 mM column)” value (rhino mice [1]; 0.01 mM, topical daily in ethanol, 5 days) was 30%, the ED30 (rhino mice [1]) was 80000 nM and the “IS3, irritation in words” value (rhino mice [5]) was “Very irritating”. For the same compound, the selectivity ratio [6] was less than 20, the Erythema score (rabbit skin; concentration not given) was 6.0 and the “IS3, irritation in words” value (rabbit skin; in rabbits, concentration not given) was “Very irritating”.

For “4-[(E)-(5,6-Dihydro-5,5-dimethyl-8-(1-methyl-1-ethane-thio)-2-naphthalenyl)ethenyl]benzoic acid [Compound D]”, the “Utriculi reduction at 0.1 mM” value (rhino mice [1]; [8]) was 85.4%, the ED30 (rhino mice [1]) was less than 100000 nM and the Erythema score (rabbit skin; concentration not given) was 5.7. For the same compound, the “IS3, irritation in words” value (rabbit skin; [9]) was “Very irritating” and the “IS3, irritation relative to TRA” value (rabbit skin) was “>>TRA”.

With `CC1=C(C#CC(C)(C)C)c2cc(/C=C/c3ccc(C(=O)O)cc3)ccc2C(C)(C)C1` [Compound A, 4-[(E)-(5,6-Dihydro-5,5-dimethyl-7-methyl-8-(3,3-dimethyl-1-butyn-1-yl)-2-naphthalenyl)ethenyl]benzoic acid] the “Utriculi reduction at 0.1 mM” value (rhino mice [1]; [8]) was 100%, the ED30 (rhino mice [1]) was less than 100000 nM and the “IS3, irritation in words” value (rhino mice [5]) was “Very irritating”. The Erythema score (rabbit skin; concentration not given) was 3.1.

`CC(C)(C)C#CC1=CCC(C)(C)c2ccc(/C=C/c3ccc(C(=O)O)cc3)cc21` [Compound I, 4-[(E)-(5,6-Dihydro-5,5-dimethyl-8-(3,3-dimethyl-1-butyn-1-yl)-2-naphthalenyl)ethenyl]benzoic acid] gave a pKd (RARα) of 8.65, a pKd (RARβ) of 8.90 and a pKd (RARγ) of 7.60. For the same compound, the “Utriculi reduction at 0.1 mM” value (rhino mice [1]; [8]) was 72%, the “Utriculi reduction at 1 mM” value (rhino mice [1]; [8]) was 100% and the ED30 (rhino mice [1]) was 55000 nM. For the same compound, the “ED30 (30% reduction in utriculi size)” value (rhino mice [1]) was 55000 nM, the selectivity ratio [6] was greater than 99 and the “therapeutic index compared with TRA and analogs” value (rabbit skin) was “highly superior to TRA and to most of the closely related analogs”. For the same compound, the “irritation to rabbit skin” value (rabbit skin; 1 mM, 14 days, FIG. 2) was “did not cause any irritation”, the “irritation to rabbit skin” value (rabbit skin; 5 mM) was “did not cause any signs of irritation to rabbit skin; also recorded: did not show any signs of irritation” and the Erythema score (rabbit skin; concentration not given) was 0. The “IS3, irritation in words” value (rabbit skin; in rabbits at 5 mM) was “No irritation”, the pIC50 [2, 10] was 8.10 and the pIC50 [3, 10] was 7.40. For the same compound, the pIC50 (MCF7 Breast CA (E2-dep.); [10]) was 5.19, the pIC50 (Calu-3 Lung CA; [10]) was 8.00 and the pIC50 [4, 10] was 5.26. For the same compound, the pIC50 (SCC 25 tongue SCC; [10]) was 5.02, the “tumor growth delay equivalent (log cell kill)” value ([7]; 30 mg/kg) was 1.2 log cell kill and the “potency in inhibiting tumor growth compared with doxorubicin” value ([7]; FIG. 3) was “as potent as doxorubicin”.

For `CC(C)(O)/C=C\C1=CCC(C)(C)c2ccc(/C=C/c3ccc(C(=O)O)cc3)cc21` [II, 4-[(E)-(5,6-Dihydro-5,5-dimethyl-8-((Z)-3-methyl-3-hydroxyl-1-buten-1-yl)-2-naphthalenyl)ethenyl]benzoic acid], the pKd (RARα) was 8.80, the pKd (RARβ) was 8.66 and the pKd (RARγ) was 8.80. The “Utriculi reduction at 0.1 mM” value (rhino mice [1]; [8]) was 8.4%, the “Utriculi reduction at 1 mM” value (rhino mice [1]; [8]) was 84% and the ED30 (rhino mice [1]) was 400000 nM. The “IS3, irritation in words” value (rhino mice [5]) was “No irritation” and the Erythema score (rabbit skin; concentration not given) was 0.

In the case of `CCC(C)(/C=C\C1=CCC(C)(C)c2ccc(/C=C/c3ccc(C(=O)O)cc3)cc21)CC` [Compound B, 4-[(E)-(5,6-Dihydro-5,5-dimethyl-8-((Z)-3-methyl-3-ethyl-1-penten-1-yl)-2-naphthalenyl)ethenyl]benzoic acid], the “Utriculi reduction (at 1.6 mM, printed in the 1 mM column)” value (rhino mice [1]; 1.6 mM, topical daily in ethanol, 5 days) was 100%, the Erythema score (rabbit skin; concentration not given) was 2.8 and the “IS3, irritation in words” value (rabbit skin; [9]) was “Irritating”. The “IS3, irritation relative to TRA” value (rabbit skin) was “<TRA”.
